Holding throughout (format): cell-based
The target of one experiment is T1, alpha2B receptor (Homo sapiens, UniProt P18089).
T1 construct: expressed in transfected cells; host or cells: NIH-3T3 cells
T1 sequence (P18089 1-450): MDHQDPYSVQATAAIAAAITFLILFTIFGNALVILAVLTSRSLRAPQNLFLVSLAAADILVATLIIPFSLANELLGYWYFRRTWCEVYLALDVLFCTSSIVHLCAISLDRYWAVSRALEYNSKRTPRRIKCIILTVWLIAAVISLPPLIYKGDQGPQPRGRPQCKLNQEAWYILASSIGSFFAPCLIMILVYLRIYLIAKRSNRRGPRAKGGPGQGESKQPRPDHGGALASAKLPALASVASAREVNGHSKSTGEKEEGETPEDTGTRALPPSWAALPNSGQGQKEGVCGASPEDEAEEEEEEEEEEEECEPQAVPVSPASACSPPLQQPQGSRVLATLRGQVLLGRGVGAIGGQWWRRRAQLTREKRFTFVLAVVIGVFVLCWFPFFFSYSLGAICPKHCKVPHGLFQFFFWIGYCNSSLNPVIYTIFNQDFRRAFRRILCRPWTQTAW
The experiment in a line: RSAT assay (Receptor Selection and Amplification Technology), alpha2B. The conditions noted are these: for EC50: RSAT, NIH-3T3 cells cotransfected with receptor and Gq/i5, ND = not determinable at concentrations less than 10 micromolar, read-out: Alpha 2B EC50; for Emax: maximal effect relative to standard full agonist brimonidine (UK14304), read-out: Alpha 2B intrinsic activity (IA), in parentheses. The method, then:
(§1) Receptor Selection and Amplification Technology (RSAT) Assay
(§2) The RSAT assay measures a receptor-mediated loss of contact inhibition that results in selective proliferation of receptor-containing cells in a mixed population of confluent cells. The increase in cell number is assessed with an appropriate transfected marker gene such as β-galactosidase, the activity of which can be easily measured in a 96-well format. Receptors that activate the G protein, Gq, elicit this response. Alpha2 receptors, which normally couple to Gi, activate the RSAT response when coexpressed with a hybrid Gq protein that has a Gi receptor recognition domain, called Gq/i5.
NIH-3T3 cells are plated at a density of 2×10^6 cells in 15 cm dishes and maintained in Dulbecco's modified Eagle's medium supplemented with 10% calf serum. One day later, cells are cotransfected by calcium phosphate precipitation with mammalian expression plasmids encoding p-SV-β-galactosidase (5-10 μg), receptor (1-2 μg) and G protein (1-2 μg). 40 μg salmon sperm DNA may also be included in the transfection mixture. Fresh media is added on the following day and 1-2 days later, cells are harvested and frozen in 50 assay aliquots. Cells are thawed and 100 μl added to 100 μl aliquots of various concentrations of drugs in triplicate in 96-well dishes. Incubations continue 72-96 hr at 37° C. After washing with phosphate-buffered saline, β-galactosidase enzyme activity is determined by adding 200 μl of the chromogenic substrate (consisting of 3.5 mM o-nitrophenyl-β-D-galactopyranoside and 0.5% nonidet P-40 in phosphate buffered saline), incubating overnight at 30° C. and measuring optical density at 420 nm. The absorbance is a measure of enzyme activity, which depends on cell number and reflects a receptor-mediated cell proliferation. The efficacy or intrinsic activity is calculated as a ratio of the maximal effect of the drug to the maximal effect of a standard full agonist for each receptor subtype. Brimonidine, also called UK14304, the chemical structure of which is shown below, is used as the standard agonist for the alpha2A, alpha2B and alpha2C receptors. The EC50 is the concentration at which the drug effect is half of its maximal effect.
EC50 values are nanomolar. ND stands for “not determinable” at concentrations less than 10 micromolar. IA stands for “intrinsic activity.”

For another experiment, the target named is T2, alpha2A receptor (Homo sapiens, UniProt P08913).
T2 construct: expressed in transfected cells; host or cells: NIH-3T3 cells
T2 sequence (P08913 1-465): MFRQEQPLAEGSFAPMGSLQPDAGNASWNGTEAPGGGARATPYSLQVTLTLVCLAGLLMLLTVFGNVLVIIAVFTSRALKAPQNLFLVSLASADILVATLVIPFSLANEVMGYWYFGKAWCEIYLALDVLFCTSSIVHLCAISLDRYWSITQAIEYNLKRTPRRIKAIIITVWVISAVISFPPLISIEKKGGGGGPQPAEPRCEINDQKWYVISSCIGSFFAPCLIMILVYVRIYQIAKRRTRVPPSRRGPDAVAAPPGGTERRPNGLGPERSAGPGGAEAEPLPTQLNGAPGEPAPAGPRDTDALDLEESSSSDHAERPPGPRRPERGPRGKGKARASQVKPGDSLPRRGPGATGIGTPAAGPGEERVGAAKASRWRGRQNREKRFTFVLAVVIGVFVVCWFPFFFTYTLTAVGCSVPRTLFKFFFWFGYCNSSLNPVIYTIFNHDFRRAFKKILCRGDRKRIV
Description: RSAT assay (Receptor Selection and Amplification Technology), alpha2A. The conditions noted are these: read-out: Alpha 2A intrinsic activity (IA), in parentheses. The method, then: as §1, §2
(§3) NIH-3T3 cells are plated at a density of 2×10^6 cells in 15 cm dishes and maintained in Dulbecco's modified Eagle's medium supplemented with 10% calf serum. […] After washing with phosphate-buffered saline, β-galactosidase enzyme activity is determined by adding 200 μl of the chromogenic substrate (consisting of 3.5 mM o-nitrophenyl-β-D-galactopyranoside and 0.5% nonidet P-40 in phosphate buffered saline), incubating overnight at 30° C. and measuring optical density at 420 nm. The absorbance is a measure of enzyme activity, which depends on cell number and reflects a receptor-mediated cell proliferation. […]

A further experiment addresses T3, alpha2C receptor (Homo sapiens, UniProt P18825).
T3 construct: expressed in transfected cells; host or cells: NIH-3T3 cells
T3 sequence (P18825 1-462): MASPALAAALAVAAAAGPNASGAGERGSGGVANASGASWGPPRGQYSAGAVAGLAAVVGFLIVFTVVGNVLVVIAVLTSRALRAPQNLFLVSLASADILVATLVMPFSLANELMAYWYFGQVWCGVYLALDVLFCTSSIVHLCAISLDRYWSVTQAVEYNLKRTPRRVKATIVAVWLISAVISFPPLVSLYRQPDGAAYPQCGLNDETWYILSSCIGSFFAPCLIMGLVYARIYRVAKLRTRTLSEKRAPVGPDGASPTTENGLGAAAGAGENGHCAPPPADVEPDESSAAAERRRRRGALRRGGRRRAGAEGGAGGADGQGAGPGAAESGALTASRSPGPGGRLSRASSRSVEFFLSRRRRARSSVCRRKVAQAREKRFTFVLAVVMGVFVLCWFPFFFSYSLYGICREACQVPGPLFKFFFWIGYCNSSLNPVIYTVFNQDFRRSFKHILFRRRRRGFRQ
Description: RSAT assay (Receptor Selection and Amplification Technology), alpha2C. Conditions: maximal effect relative to standard full agonist brimonidine (UK14304); read-out: Alpha 2C intrinsic activity (IA), in parentheses. The method, then: as §1, §2, §3

A word on the EC50: it is the concentration that produces a half-maximal response. `c1cnc2c(c1)CCCC2NC1=NCCO1` (centres unmarked): the EC50 on alpha2B receptor stood at 545 nM. The Emax came out at 67% at alpha2B receptor, 3% on alpha2A receptor and 22% at alpha2C receptor.

Take `c1cnc2c(n1)CCCC2NC1=NCCO1` (centres unmarked): the EC50 at alpha2B receptor amounted to 271 nM. Moreover, the Emax at alpha2B receptor turned out to be 86%; on alpha2A receptor, 16%; on alpha2C receptor, 27%.

Source of the values: patent publication US8486969B2, “Therapeutic compounds” (Allergan, Inc., priority 2007, dated 2013).
